The results in this text go back to US4705805A, “Antithrombotic agent” (priority 1978, dated 1987).

Data set [1] concerns rabbit blood platelets (platelet rich plasma), collagen-induced aggregation. Kind of data set: inhibition of platelet aggregation in rabbit platelet rich plasma (in vitro), induced by collagen. Particulars: Oryctolagus cuniculus, Platelet; for inhibition at 1 µg/mL: 1 μg/ml; for inhibition at 3 µg/mL: 3 μg/ml; for inhibition at 10 µg/mL: 10 μg/ml. It is filed as cell-based. Here is the method:
(§1) In this example, the inhibition of platelet aggregation in rabbit platelet rich plasma (in vitro) is tested.
(§2) In this test, 9 vol. of blood is sampled from the carotid artery of rabbits (2 to 2.5 Kg) and placed in a silicon-coated flask containing 1 vol. of 3.8% sodium citrate. The thus obtained blood is centrifuged at 1,000 rpm for 15 minutes to obtain platelet rich plasma (referred to as "PRP" hereinafter). The aggregation of blood platelets is observed using an aggregometer (made by Bryston Co.) and the degree of aggregation after the addition of aggregation promoting substances is measured by nephelometry, i.e., through increase in light transmission.
(§3) The PRP (0.9 ml) is placed in a silicon-coated cuvett of the aggregometer. Then, 0.05 ml of physiological saline solution containing various concentrations of test reagents or control reagents is added and the mixture is allowed to stand for one minute. Compounds promoting aggregation are then added and the absorbancy of the solution is measured and the percent inhibition of aggregation is calculated according to the following equation: [formula] C: Transmittancy showing the maximum percent aggregation by physiological saline solution
(§4) D: Transmittancy showing the maximum percent aggregation by sample
(§5) Test for the inhibition of platelet aggregation induced by ADP, collagen and thrombin.

Data set [2] relates to human platelet rich plasma, collagen-induced aggregation. Kind of data set: inhibition of platelet aggregation in human platelet rich plasma, induced by collagen. It is filed as cell-based. Particulars: read-out: percentage inhibition, collagen; for inhibition at 10 µg/mL: 10 μg/ml. Here is the method:
as §2, §3, §4
(§6) In this example, the same procedures are repeated as in Example 10 except that human platelet rich plasma is used in place of rabbit platelet rich plasma.

Data set [3] deals with rabbit blood platelets (platelet rich plasma), thrombin-induced aggregation. Put plainly: inhibition of platelet aggregation in rabbit platelet rich plasma (in vitro), induced by thrombin. In kind it is cell-based. Particulars: Oryctolagus cuniculus, read-out: percentage of inhibition, thrombin. On the procedure:
as §1
The thus obtained blood is centrifuged at 1,000 rpm for 15 minutes to obtain platelet rich plasma (referred to as "PRP" hereinafter). The aggregation of blood platelets is observed using an aggregometer (made by Bryston Co.) and the degree of aggregation after the addition of aggregation promoting substances is measured by nephelometry, i.e., through increase in light transmission.
as §3, §4, §5

The subject of data set [4] is human platelet rich plasma, ADP-induced aggregation. Put plainly: inhibition of platelet aggregation in human platelet rich plasma, induced by ADP. Particulars: read-out: percentage inhibition, ADP; for inhibition at 10 µg/mL: 10 μg/ml. In kind it is cell-based. On the procedure: as §2, §3, §4, §6
The subject of data set [5] is mice (male dd-strain), death by sodium arachidonate. Kind of data set: prevention of death of mice by sodium arachidonate. In kind it is in vivo. Particulars: sodium arachidonate 50 mg/Kg i.v. two hours thereafter. Here is the method:
When a large amount of arachidonic acid is intravenously administrated to a mouse, blood platelet aggregates are formed and caught by the microvasculature system of the lung. As a result, the mouse expires due to dyspnea.
To examine the effect of a medicine in vivo, the medicine is orally administered to test animals and thereafter arachidonic acid is administered.
In this example, the test was carried out according to the method by Uzunova A. D. et al. [Prostaglandins 13, p. 995 (1977)] Specifically, a CMC suspension consisting of 0.3% CMC solution and a medicine (test compound and reference medicine) was orally administered to mice (male dd-strain, 22-24 g). Two hours thereafter, 50 mg/Kg of sodium arachidonate was intravenously administered to the mice.

The subject of data set [6] is mice, death by ADP injection. Kind of data set: prevention of death of mice by ADP addition (in vivo), intravenous administration. Particulars: 10 mg/Kg, ADP-Na ten minutes thereafter. Here is the method: (§7) In this example, prevention of death of mice by ADP addition (in vivo) is tested. It is shown that intravenous administration of a great amount of ADP to mice causes aggregated blood platelets to be captured in the pulmonary capillaries so that the mice die of respiratory distress.
In order to check the effect by intravenous administration, physiological saline solution and physiological saline solution containing the test reagents (0.5 mg/ml) is injected into the tail vein in a volume of 0.2 ml/10 g (body weight). Ten minutes thereafter (10 mg/kg) ADP-Na is injected into the tail vein as in the oral test, and the mortality is calculated.

The subject of data set [7] is mice, death by ADP injection. Kind of data set: prevention of death of mice by ADP addition (in vivo), oral administration. Particulars: for effect in reducing mortality (ADP): in words, oral or intravenous administration, Table 3; for Mortality / Score (mortality): oral, 100 mg/Kg, ADP i.v. after one hour. Here is the method: as §7
The test is carried out according to Roba's method. [Eur. J. Pharmacol. 37, 265-274 (1976)]. Specifically, CMC solution (0.3%) and CMC suspension containing the test compound and control compounds are orally administered to mice in a ratio of 0.1 ml/10 g (body weight). After one hour, an aqueous solution of ADP (60 mg/ml) is injected into the tail vein in a volume of 0.1 ml/10 g (body weight) every 10 seconds and the mortality is calculated.

Data set [8] deals with rabbit blood platelets (platelet rich plasma), ADP-induced aggregation. Put plainly: inhibition of platelet aggregation in rabbit platelet rich plasma (in vitro), induced by ADP. In kind it is cell-based. Particulars: Oryctolagus cuniculus, Platelet; for inhibition at 1 µg/mL: 1 μg/ml; for inhibition at 3 µg/mL: 3 μg/ml; for inhibition at 10 µg/mL: 10 μg/ml. On the procedure:
as §1, §2, §3, §4, §5

The nature of data set [9]: acute toxicity, Behrens-Karber's method. It is filed as in vivo. Particulars: in vivo; mouse, oral. Here is the method: (§8) In this example, the acute toxicity of compounds of the invention is determined by Behrens-Karber's method using, 5 male dd-strain for each group weighing 20±1 g. A 0.3% CMC suspension of the test compound (concentration of the test compound: 100 mg/ml) is then orally administered to each mouse.

The next data set has as its system mouse (male dd-strain). Put plainly: acute toxicity, Behrens-Karber's method. It is filed as in vivo. Particulars: oral. On the procedure:
as §8

A further data set in a line: solubility. It is filed as physicochemical.
The mark [10] stands for this setting: read-out: percentage of inhibition, collagen.
The mark [11] stands for this setting: read-out: percentage of inhibition, ADP.
The mark [12] stands for this setting: rabbit PRP, read-out: percentage of inhibition, collagen.
[13] abbreviates: rabbit PRP, ADP 10^-5 M, read-out: percentage of inhibition, ADP.
The mark [14] stands for this setting: rabbit PRP, ADP 10^-5 M, 30 μg/ml, read-out: percentage of inhibition, ADP.

Molecules are shown by their SMILES. ≈ marks a conversion by molar mass, not a printed value. Where two headings read alike, the source gives them in different places.

Consider `CC(=O)Oc1ccccc1C(=O)O` [Aspirin, reference compound], for which the inhibition (commonly how much of the control response was suppressed) at 30 µg/mL in data set [1] (setting [10]) turned out to be 20%; in data set [2] (Homo sapiens) it was 48%; in data set [3], 21%; in [4] (Homo sapiens), 7%. Besides, the inhibition at 100 µg/mL was determined as 34% in data set [1] (setting [10]), 86% in data set [2] (Homo sapiens), 65% in [3] and 20% in data set [4] (Homo sapiens). The inhibition at 300 µg/mL in [1] (setting [10]) stood at 48%; in data set [8] (setting [11]), 0%. The Mortality is 50% in data set [5] (oral 12.5 mg/Kg), 10% in [5] (oral 25 mg/Kg), 70% in data set [6] and 80% in data set [7]. Besides, the “Score (mortality)” value in data set [5] (oral 12.5 mg/Kg) is 5/10; in data set [5] (oral 25 mg/Kg) it was 1/10; in data set [6], 7/10; in data set [7], 8/10. Moreover, the “effect in reducing mortality (ADP)” value in data set [7] was “ineffective”.
For `O=C(NCCO)c1ccccc1SSc1ccccc1C(=O)NCCO` [Compound III, 2,2'-dithiobis(N-2-hydroxyethylbenzamide)], the IC50 (usually the midpoint of a concentration-inhibition curve) stood at 1.1 µg/mL (≈ 2.8 µM) in [1] (rabbit PRP) and 4.8 µg/mL (≈ 12.2 µM) in [8] (rabbit PRP, ADP 10^-5 M). Also, the inhibition at 0.3 µg/mL in data set [1] (rabbit PRP, 0.3 μg/ml, read-out: percentage of inhibition, collagen) was 11%. Besides, the figures for the inhibition at 1 µg/mL in data set [1] (setting [12]) and in data set [8] (setting [13]) were 39.2% and 21.3%, respectively. In addition, the inhibition at 3 µg/mL in [1] (setting [12]) turned out to be 88.5%; in [8] (setting [13]) it was 33.4%. In addition, the inhibition at 10 µg/mL in data set [1] (setting [12]) is 100%; in [2] (human PRP), 20%; in data set [4] (human PRP), 15%; in [8] (setting [13]), 69.1%. For the same compound, the LD50 (commonly the dose expected to kill half of the subjects tested) in data set [9] is no less than 2000 mg/kg. Besides, the mortality rate is reported as 0/5 in the data set with mouse (male dd-strain) (1 g/Kg), 1/5 in the data set on mouse (male dd-strain) (2 g/Kg), 4/5 in the data set with mouse (male dd-strain) (3 g/Kg) and 4/5 in the data set on mouse (male dd-strain) (4 g/Kg). The inhibition at 30 µg/mL in data set [2] (human PRP, 30 μg/ml) stood at 66%; in [4] (human PRP, 30 μg/ml), 43%; in data set [8] (setting [14]) it was 100%. Besides, the inhibition at 100 µg/mL worked out at 100% in data set [2] (human PRP, 100 μg/ml) and 98% in [4] (human PRP, 100 μg/ml). In addition, the results for the Mortality in data set [5] (oral 50 mg/Kg), in [5] (oral 100 mg/Kg) and in data set [7] were 70%, 40% and 20%, respectively. Also, the “Score (mortality)” value is 7/10 in data set [5] (oral 50 mg/Kg), 4/20 in data set [5] (oral 100 mg/Kg) and 2/10 in [7].
In the case of `CC(O)CNC(=O)c1ccccc1SSc1ccccc1C(=O)NCC(C)O` (centres unmarked) [Compound V, 2,2'-dithiobis(N-2-hydroxypropylbenzamide)], the inhibition at 1 µg/mL amounted to 25.7% in [1] (setting [12]); 10% in data set [3] (rabbit PRP, 1 μg/ml); 12.5% in [8] (setting [13]). For the same compound, the inhibition at 3 µg/mL amounted to 83.5% in [1] (setting [12]); 13% in data set [2] (human PRP, 3 μg/ml); 57% in data set [3] (rabbit PRP, 3 μg/ml); 47% in data set [4] (human PRP, 3 μg/ml); 25.5% in data set [8] (setting [13]). For the same compound, the inhibition at 10 µg/mL is 100% in [1] (setting [12]); 39% in [2] (human PRP); 89.6% in [3] (rabbit PRP, 10 μg/ml); 61% in [4] (human PRP); 54% in [8] (setting [13]). In addition, in data set [9], the LD50 is no less than 3000 mg/kg. Also, the mortality rate is given as 0/5 in the data set on mouse (male dd-strain) (2 g/Kg), 2/5 in the data set on mouse (male dd-strain) (3 g/Kg) and 4/5 in the data set on mouse (male dd-strain) (4 g/Kg). The inhibition at 30 µg/mL was 100% in [2] (human PRP, 30 μg/ml); 95% in [3] (rabbit PRP, 30 μg/ml); 81% in data set [4] (human PRP, 30 μg/ml); 90% in data set [8] (setting [14]). In addition, the figures for the Mortality in data set [5] (oral 25 mg/Kg), in data set [5] (oral 50 mg/Kg) and in data set [5] (oral 100 mg/Kg) were 40%, 20% and 20%, respectively. Besides, the results for the “Score (mortality)” value in data set [5] (oral 25 mg/Kg), in data set [5] (oral 50 mg/Kg) and in [5] (oral 100 mg/Kg) were 8/20, 4/20 and 4/20, respectively. In data set [8] (rabbit PRP, ADP 10^-5 M), half-maximal inhibition (IC50) required 7.4 µg/mL (≈ 17.6 µM).
With `O=C(NCO)c1ccccc1SSc1ccccc1C(=O)NCO` [Compound XV, 2,2'-dithiobis(N-hydroxymethylbenzamide)], the inhibition at 3 µg/mL in data set [1] (setting [12]) turned out to be 22%. The inhibition at 10 µg/mL is 56% in data set [1] (setting [12]), 29% in data set [2] (human PRP), 5% in data set [4] (human PRP) and 0% in data set [8] (setting [13]). The inhibition at 30 µg/mL was 100% in [1] (rabbit PRP, 30 μg/ml, read-out: percentage of inhibition, collagen); 68% in data set [2] (human PRP, 30 μg/ml); 45% in data set [4] (human PRP, 30 μg/ml); 46% in data set [8] (setting [14]). Also, the inhibition at 100 µg/mL is 100% in [2] (human PRP, 100 μg/ml) and 90% in [4] (human PRP, 100 μg/ml). Besides, the “Solubility in DMSO, DMF” value in “solubility” (DMSO, DMF, etc.) is “Soluble”. For the same compound, in the data set “solubility” (ethanol, water, and the like), the “Solubility in ethanol, water” value is given as “poorly soluble”. Also, the “Solubility in ether, benzene, chloroform” value in the data set “solubility” (ether, benzene, chloroform, and the like) was “Insoluble”.
`COc1ccc(Cc2nccc3cc(OC)c(OC)cc23)cc1OC` [papaverine, reference compound]: in [1] (setting [10]), the inhibition at 30 µg/mL turned out to be 34% and the inhibition at 100 µg/mL was found to be 100%. Further, in [7], the “effect in reducing mortality (ADP)” value is recorded as “ineffective”, the Mortality amounted to 60% and the “Score (mortality)” value is 6/10. Also, in [8] (setting [11]), the inhibition at 30 µg/mL was 14% and the inhibition at 100 µg/mL is 99%.
